For 2 compounds, Activity and inhibition results are on record in ChEMBL document CHEMBL5647685.

In experiment [1] the test system is MSC. Briefly: Bone activity in human MSC cultures assessed as promotion of osteogenesis at 0.1 to 1 uM dosed on days 1 to 7 and measured on day 7 by alkaline phosphatase activity detection detection assay. In kind it is functional. The settings on record: dose 0.1-1 µM, time 7.0 day.
The subject of experiment [2] is MSC. In words: Induction of osteoblast nodule formation in human MSC cultures assessed as mineral incorporation at 0.1 to 1 uM by blue incubated for 1 to 14 days calcein detection based fluorescent micrography. The experiment is classed as functional, cell-based. The settings on record: dose 0.1-1 µM, time 1-14 day.
Experiment [3] deals with T1, Tyrosine-protein kinase JAK3 (Homo sapiens) (UniProt P52333).
T1 sequence (whole entry): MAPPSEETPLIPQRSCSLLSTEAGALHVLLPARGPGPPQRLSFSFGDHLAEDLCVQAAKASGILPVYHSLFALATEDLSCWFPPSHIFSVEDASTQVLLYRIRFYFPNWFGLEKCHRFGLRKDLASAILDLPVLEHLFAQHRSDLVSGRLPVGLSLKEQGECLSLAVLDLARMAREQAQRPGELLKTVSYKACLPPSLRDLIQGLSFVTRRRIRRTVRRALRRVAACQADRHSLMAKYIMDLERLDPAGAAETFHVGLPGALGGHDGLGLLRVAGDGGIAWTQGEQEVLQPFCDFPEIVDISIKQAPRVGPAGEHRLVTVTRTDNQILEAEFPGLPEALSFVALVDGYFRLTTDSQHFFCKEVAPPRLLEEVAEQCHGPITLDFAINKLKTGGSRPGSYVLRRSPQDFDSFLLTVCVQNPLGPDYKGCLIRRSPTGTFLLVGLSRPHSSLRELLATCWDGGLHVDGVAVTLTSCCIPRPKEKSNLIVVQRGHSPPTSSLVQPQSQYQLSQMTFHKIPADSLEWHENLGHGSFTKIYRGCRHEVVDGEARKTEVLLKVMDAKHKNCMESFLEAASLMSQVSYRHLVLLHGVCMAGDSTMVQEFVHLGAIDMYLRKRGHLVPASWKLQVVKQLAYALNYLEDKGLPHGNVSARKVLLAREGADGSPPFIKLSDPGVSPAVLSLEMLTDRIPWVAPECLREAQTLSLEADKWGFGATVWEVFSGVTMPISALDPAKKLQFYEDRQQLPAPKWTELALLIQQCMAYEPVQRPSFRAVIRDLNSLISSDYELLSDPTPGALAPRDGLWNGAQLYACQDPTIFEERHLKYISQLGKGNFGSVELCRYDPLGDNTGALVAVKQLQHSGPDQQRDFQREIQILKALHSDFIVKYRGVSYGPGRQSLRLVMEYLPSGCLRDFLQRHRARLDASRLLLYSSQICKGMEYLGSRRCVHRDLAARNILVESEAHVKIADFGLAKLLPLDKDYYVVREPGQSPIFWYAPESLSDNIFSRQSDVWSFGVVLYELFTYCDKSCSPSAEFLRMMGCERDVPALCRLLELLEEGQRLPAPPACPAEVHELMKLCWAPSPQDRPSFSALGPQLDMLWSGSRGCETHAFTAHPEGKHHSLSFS
Briefly: Inhibition of full-length C-terminal his-tagged human JAK3 at 1 uM pre-incubated with enzyme for 1 h prior to the addition of 500 uM ATP relative to control.

The test system of experiment [4] is MSC. Briefly: Bone activity in human MSC cultures assessed as promotion of osteogenesis at 0.1 to 1 uM dosed on days 4 to 7 and measured on day 7 by alkaline phosphatase activity detection detection assay. The settings on record: dose 0.1-1 µM, time 4.0 day. In kind it is functional.
In experiment [5] the target is T2, Aurora kinase A (Homo sapiens) (UniProt O14965).
T2 sequence (whole entry): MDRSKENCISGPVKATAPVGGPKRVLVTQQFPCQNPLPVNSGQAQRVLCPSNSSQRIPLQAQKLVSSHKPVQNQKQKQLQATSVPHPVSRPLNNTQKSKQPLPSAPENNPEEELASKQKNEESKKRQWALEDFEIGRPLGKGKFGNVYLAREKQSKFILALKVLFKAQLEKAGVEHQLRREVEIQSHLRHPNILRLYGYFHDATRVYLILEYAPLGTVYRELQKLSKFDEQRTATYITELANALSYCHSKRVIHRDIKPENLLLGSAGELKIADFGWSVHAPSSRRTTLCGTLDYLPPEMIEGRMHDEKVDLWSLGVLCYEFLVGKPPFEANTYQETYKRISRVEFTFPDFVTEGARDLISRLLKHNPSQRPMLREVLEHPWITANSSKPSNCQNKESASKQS
Briefly: Inhibition of full-length C-terminal his-tagged human AUR2 at 1 uM pre-incubated with enzyme for 1 h prior to the addition of 500 uM ATP relative to control.

In experiment [6] the target is High affinity nerve growth factor receptor (Homo sapiens) (UniProt P04629). Briefly: Inhibition of full-length C-terminal his-tagged human TRKA at 1 uM pre-incubated with enzyme for 1 h prior to the addition of 500 uM ATP relative to control.

What is called inhibition is the percentage by which the read-out fell short of the control. Read a low inhibition as little suppression.

The source made the active and inactive calls. The rule behind the calls is not given here.

Chain of High affinity nerve growth factor receptor (Homo sapiens) (P04629 33-796 limits assumed): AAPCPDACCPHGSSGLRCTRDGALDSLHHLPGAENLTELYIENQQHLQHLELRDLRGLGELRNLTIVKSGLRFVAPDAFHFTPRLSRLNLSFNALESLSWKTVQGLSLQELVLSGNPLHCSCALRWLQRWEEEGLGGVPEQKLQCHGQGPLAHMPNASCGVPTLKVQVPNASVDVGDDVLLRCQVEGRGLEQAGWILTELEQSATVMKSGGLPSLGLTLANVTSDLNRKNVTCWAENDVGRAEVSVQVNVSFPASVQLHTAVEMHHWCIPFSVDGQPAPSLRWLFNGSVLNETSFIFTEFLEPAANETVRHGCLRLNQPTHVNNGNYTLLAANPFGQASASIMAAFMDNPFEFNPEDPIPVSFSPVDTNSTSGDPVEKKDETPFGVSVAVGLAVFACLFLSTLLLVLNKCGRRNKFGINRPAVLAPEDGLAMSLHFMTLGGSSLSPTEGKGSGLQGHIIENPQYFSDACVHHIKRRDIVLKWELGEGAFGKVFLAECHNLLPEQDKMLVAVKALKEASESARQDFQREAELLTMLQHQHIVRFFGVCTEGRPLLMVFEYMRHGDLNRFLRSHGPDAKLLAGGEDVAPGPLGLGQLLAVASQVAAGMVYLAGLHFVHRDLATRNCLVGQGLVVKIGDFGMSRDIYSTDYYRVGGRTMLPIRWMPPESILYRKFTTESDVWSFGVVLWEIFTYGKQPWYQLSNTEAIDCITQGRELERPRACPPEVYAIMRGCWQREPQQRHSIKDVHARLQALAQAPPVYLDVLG

Take `Cc1ccc(-n2nc(C(C)(C)C)cc2NC(=O)Nc2cc(COc3cccnc3)n[nH]2)cc1`: in experiment [1], the Activity entry is “Dose-Dependent Effect”. Also, the result in experiment [2] was Active.
Turning to `CN(c1ccccc1CNc1nc(Nc2ccc3c(c2)CC(=O)N3)ncc1C(F)(F)F)S(C)(=O)=O`, the inhibition in experiment [3], in experiment [5] and in experiment [6] was over 90% in each case. Also, in experiment [4], the outcome was Active. Also, the outcome in experiment [2] was inactive.
